Tested on: AMPA receptors (rat cerebral cortex poly(A+) mRNA expressed in Xenopus oocytes)
Assay: Excitatory currents induced by AMPA in Xenopus oocytes (two-electrode voltage-clamp)
Type: cell-based
Conditions: (S)-AMPA 10 μM; Xenopus oocytes injected with rat cortex mRNA; 20-24° C.
Method: Study of the Excitatory Currents Induced by AMPA in Xenopus Oocytes
mRNA's are prepared from cerebral cortex of male Wistar rats by the guanidinium thiocyanate/phenol/chloroform method. The poly (A^+) mRNA's are isolated by chromatography on oligo-dT cellulose and injected at a level of 50 ng per oocyte. The oocytes are incubated for 2 to 3 days at 18° C. to permit expression of the receptors and are then stored at 8-10° C.
Electrophysiological recording is carried out in a Plexiglass® chamber at 20-24° C. in OR2 medium (J. Exp. Zool., 1973, 184, 321-334) by the “voltage-clamp” method using two electrodes, a third electrode being placed in the bath serving as reference.
All the compounds are applied via the incubation medium and the electric current is measured at the end of the application period. (S)-AMPA is used in a concentration of 10 μM. For each compound studied, the concentration that doubles (EC2X) or quintuples (EC5X) the intensity of the current induced by AMPA alone (5 to 50 nA) is determined.
The compounds of the invention potentiate the excitatory effects induced by (S)-AMPA to a very considerable degree.

SMILES	EC2X (concentration that doubles the intensity of the current induced by AMPA alone)	EC5X (concentration that quintuples the intensity of the current induced by AMPA alone)
CC(C)N1CNS(=O)(=O)c2sc(Cl)cc21 [Example 4, 6-Chloro-4-isopropyl-3,4-dihydro-2H-thieno[3,2-e][1,2,4]thiadiazine 1,1-dioxide]	4.2 ± 0.7 µM	11 ± 3 µM
CN1CNS(=O)(=O)c2c(Cl)sc(Cl)c21 [Example 6, 5,7-Dichloro-4-methyl-3,4-dihydro-2H-thieno[3,4-e][1,2,4]thiadiazine 1,1-dioxide]	5.4 ± 2.8 µM	11.3 ± 4.9 µM

From patent US7476668B2, “Thiadiazine derivatives and use thereof as positive AMPA receptor modulators” (Les Laboratoires Servier, priority 2003, dated 2009)
